Calls of active or inactive are those of the source. No rule for the calls is given here.
Test system: CCRIS mutagenicity, Ames/micronucleus/aberration tests
Assay: CCRIS mutagenicity studies

## O=C(O)CN(CCN(CC(=O)O)CC(=O)O)CC(=O)O
Test System: AMES SALMONELLA TYPHIMURIUM, Strain/Indicator: TA97, Metabolic Activation: HAMSTER, LIVER, S-9, AROCLOR 1254 (10%), Method: PREINCUBATION
  mutagenic call: inactive; negative
Test System: AMES SALMONELLA TYPHIMURIUM, Strain/Indicator: TA97, Metabolic Activation: HAMSTER, LIVER, S-9, AROCLOR 1254 (30%), Method: PREINCUBATION
  mutagenic call: inactive; negative
Test System: AMES SALMONELLA TYPHIMURIUM, Strain/Indicator: TA97, Metabolic Activation: NONE, Method: PREINCUBATION
  mutagenic call: inactive; negative
Test System: AMES SALMONELLA TYPHIMURIUM, Strain/Indicator: TA97, Metabolic Activation: RAT, LIVER, S-9, AROCLOR 1254 (10%), Method: PREINCUBATION
  mutagenic call: inactive; negative
Test System: AMES SALMONELLA TYPHIMURIUM, Strain/Indicator: TA97, Metabolic Activation: RAT, LIVER, S-9, AROCLOR 1254 (30%), Method: PREINCUBATION
  mutagenic call: inactive; negative
Test System: AMES SALMONELLA TYPHIMURIUM, Strain/Indicator: TA97, Metabolic Activation: S-9, Method: PREINCUBATION
  mutagenic call: inactive; negative
Test System: AMES SALMONELLA TYPHIMURIUM, Strain/Indicator: TA98, Metabolic Activation: HAMSTER, LIVER, S-9, AROCLOR 1254 (10%), Method: PREINCUBATION
  mutagenic call: inactive; negative
Test System: AMES SALMONELLA TYPHIMURIUM, Strain/Indicator: TA98, Metabolic Activation: HAMSTER, LIVER, S-9, AROCLOR 1254 (30%), Method: PREINCUBATION
  mutagenic call: inactive; negative
Test System: AMES SALMONELLA TYPHIMURIUM, Strain/Indicator: TA98, Metabolic Activation: HAMSTER, LIVER, S-9, AROCLOR 1254, Method: STANDARD PLATE
  mutagenic call: inactive; negative
Test System: AMES SALMONELLA TYPHIMURIUM, Strain/Indicator: TA98, Metabolic Activation: NONE, Method: PREINCUBATION
  mutagenic call: inactive; negative
Test System: AMES SALMONELLA TYPHIMURIUM, Strain/Indicator: TA98, Metabolic Activation: NONE, Method: STANDARD PLATE
  mutagenic call: inactive; negative
Test System: AMES SALMONELLA TYPHIMURIUM, Strain/Indicator: TA98, Metabolic Activation: RAT LIVER S-9, PHENOBARBITAL AND BETA-NAPHTHOFLAVONE, Method: PREINCUBATION
  mutagenic call: inactive; negative
Test System: AMES SALMONELLA TYPHIMURIUM, Strain/Indicator: TA98, Metabolic Activation: RAT, LIVER, S-9, AROCLOR 1254 (10%), Method: PREINCUBATION
  mutagenic call: inactive; negative
Test System: AMES SALMONELLA TYPHIMURIUM, Strain/Indicator: TA98, Metabolic Activation: RAT, LIVER, S-9, AROCLOR 1254 (30%), Method: PREINCUBATION
  mutagenic call: inactive; negative
Test System: AMES SALMONELLA TYPHIMURIUM, Strain/Indicator: TA98, Metabolic Activation: RAT, LIVER, S-9, AROCLOR 1254, Method: STANDARD PLATE
  mutagenic call: inactive; negative
Test System: AMES SALMONELLA TYPHIMURIUM, Strain/Indicator: TA100, Metabolic Activation: HAMSTER, LIVER, S-9, AROCLOR 1254 (10%), Method: PREINCUBATION
  mutagenic call: inactive; negative
Test System: AMES SALMONELLA TYPHIMURIUM, Strain/Indicator: TA100, Metabolic Activation: HAMSTER, LIVER, S-9, AROCLOR 1254 (30%), Method: PREINCUBATION
  mutagenic call: inactive; negative
Test System: AMES SALMONELLA TYPHIMURIUM, Strain/Indicator: TA100, Metabolic Activation: HAMSTER, LIVER, S-9, AROCLOR 1254, Method: STANDARD PLATE
  mutagenic call: inactive; negative
Test System: AMES SALMONELLA TYPHIMURIUM, Strain/Indicator: TA100, Metabolic Activation: NONE, Method: PREINCUBATION
  mutagenic call: inactive; negative
Test System: AMES SALMONELLA TYPHIMURIUM, Strain/Indicator: TA100, Metabolic Activation: NONE, Method: STANDARD PLATE
  mutagenic call: inactive; negative
Test System: AMES SALMONELLA TYPHIMURIUM, Strain/Indicator: TA100, Metabolic Activation: RAT LIVER S-9, PHENOBARBITAL AND BETA-NAPHTHOFLAVONE, Method: PREINCUBATION
  mutagenic call: inactive; negative
Test System: AMES SALMONELLA TYPHIMURIUM, Strain/Indicator: TA100, Metabolic Activation: RAT, LIVER, S-9, AROCLOR 1254 (10%), Method: PREINCUBATION
  mutagenic call: inactive; negative
Test System: AMES SALMONELLA TYPHIMURIUM, Strain/Indicator: TA100, Metabolic Activation: RAT, LIVER, S-9, AROCLOR 1254 (30%), Method: PREINCUBATION
  mutagenic call: inactive; negative
Test System: AMES SALMONELLA TYPHIMURIUM, Strain/Indicator: TA100, Metabolic Activation: RAT, LIVER, S-9, AROCLOR 1254, Method: STANDARD PLATE
  mutagenic call: inactive; negative
Test System: AMES SALMONELLA TYPHIMURIUM, Strain/Indicator: TA102, Metabolic Activation: NONE, Method: PREINCUBATION
  mutagenic call: inactive; negative
Test System: AMES SALMONELLA TYPHIMURIUM, Strain/Indicator: TA102, Metabolic Activation: RAT LIVER S-9, PHENOBARBITAL AND BETA-NAPHTHOFLAVONE, Method: PREINCUBATION
  mutagenic call: inactive; negative
Test System: AMES SALMONELLA TYPHIMURIUM, Strain/Indicator: TA102, Metabolic Activation: S-9, Method: PREINCUBATION
  mutagenic call: inactive; negative
Test System: AMES SALMONELLA TYPHIMURIUM, Strain/Indicator: TA104, Metabolic Activation: NONE, Method: PREINCUBATION
  mutagenic call: inactive; negative
Test System: AMES SALMONELLA TYPHIMURIUM, Strain/Indicator: TA104, Metabolic Activation: RAT LIVER S-9, PHENOBARBITAL AND BETA-NAPHTHOFLAVONE, Method: PREINCUBATION
  mutagenic call: inactive; negative
Test System: AMES SALMONELLA TYPHIMURIUM, Strain/Indicator: TA1535, Metabolic Activation: HAMSTER, LIVER, S-9, AROCLOR 1254 (10%), Method: PREINCUBATION
  mutagenic call: inactive; negative
Test System: AMES SALMONELLA TYPHIMURIUM, Strain/Indicator: TA1535, Metabolic Activation: HAMSTER, LIVER, S-9, AROCLOR 1254 (30%), Method: PREINCUBATION
  mutagenic call: inactive; negative
Test System: AMES SALMONELLA TYPHIMURIUM, Strain/Indicator: TA1535, Metabolic Activation: HAMSTER, LIVER, S-9, AROCLOR 1254, Method: STANDARD PLATE
  mutagenic call: inactive; negative
Test System: AMES SALMONELLA TYPHIMURIUM, Strain/Indicator: TA1535, Metabolic Activation: NONE, Method: PREINCUBATION
  mutagenic call: inactive; negative
Test System: AMES SALMONELLA TYPHIMURIUM, Strain/Indicator: TA1535, Metabolic Activation: NONE, Method: STANDARD PLATE
  mutagenic call: inactive; negative
Test System: AMES SALMONELLA TYPHIMURIUM, Strain/Indicator: TA1535, Metabolic Activation: RAT LIVER S-9, PHENOBARBITAL AND BETA-NAPHTHOFLAVONE, Method: PREINCUBATION
  mutagenic call: inactive; negative
Test System: AMES SALMONELLA TYPHIMURIUM, Strain/Indicator: TA1535, Metabolic Activation: RAT, LIVER, S-9, AROCLOR 1254 (10%), Method: PREINCUBATION
  mutagenic call: inactive; negative
Test System: AMES SALMONELLA TYPHIMURIUM, Strain/Indicator: TA1535, Metabolic Activation: RAT, LIVER, S-9, AROCLOR 1254 (30%), Method: PREINCUBATION
  mutagenic call: inactive; negative
Test System: AMES SALMONELLA TYPHIMURIUM, Strain/Indicator: TA1535, Metabolic Activation: RAT, LIVER, S-9, AROCLOR 1254, Method: STANDARD PLATE
  mutagenic call: inactive; negative
Test System: AMES SALMONELLA TYPHIMURIUM, Strain/Indicator: TA1537, Metabolic Activation: HAMSTER, LIVER, S-9, AROCLOR 1254, Method: STANDARD PLATE
  mutagenic call: inactive; negative
Test System: AMES SALMONELLA TYPHIMURIUM, Strain/Indicator: TA1537, Metabolic Activation: NONE, Method: PREINCUBATION
  mutagenic call: inactive; negative
Test System: AMES SALMONELLA TYPHIMURIUM, Strain/Indicator: TA1537, Metabolic Activation: NONE, Method: STANDARD PLATE
  mutagenic call: inactive; negative
Test System: AMES SALMONELLA TYPHIMURIUM, Strain/Indicator: TA1537, Metabolic Activation: RAT LIVER S-9, PHENOBARBITAL AND BETA-NAPHTHOFLAVONE, Method: PREINCUBATION
  mutagenic call: inactive; negative
Test System: AMES SALMONELLA TYPHIMURIUM, Strain/Indicator: TA1537, Metabolic Activation: RAT, LIVER, S-9, AROCLOR 1254, Method: STANDARD PLATE
  mutagenic call: inactive; negative
Test System: AMES SALMONELLA TYPHIMURIUM, Strain/Indicator: TA1538, Metabolic Activation: HAMSTER, LIVER, S-9, AROCLOR 1254, Method: STANDARD PLATE
  mutagenic call: inactive; negative
Test System: AMES SALMONELLA TYPHIMURIUM, Strain/Indicator: TA1538, Metabolic Activation: NONE, Method: STANDARD PLATE
  mutagenic call: inactive; negative
Test System: AMES SALMONELLA TYPHIMURIUM, Strain/Indicator: TA1538, Metabolic Activation: RAT, LIVER, S-9, AROCLOR 1254, Method: STANDARD PLATE
  mutagenic call: inactive; negative
Test System: E. COLI, Strain/Indicator: WP2 UVRA, Metabolic Activation: HAMSTER, LIVER, S-9, AROCLOR 1254, Method: STANDARD PLATE
  mutagenic call: inactive; negative
Test System: E. COLI, Strain/Indicator: WP2 UVRA, Metabolic Activation: HAMSTER, LIVER, S-9, Method: STANDARD PLATE
  mutagenic call: inactive; negative
Test System: E. COLI, Strain/Indicator: WP2 UVRA, Metabolic Activation: MOUSE, LIVER, S-9, AROCLOR 1254, Method: STANDARD PLATE
  mutagenic call: inactive; negative
Test System: E. COLI, Strain/Indicator: WP2 UVRA, Metabolic Activation: MOUSE, LIVER, S-9, Method: STANDARD PLATE
  mutagenic call: inactive; negative
Test System: E. COLI, Strain/Indicator: WP2 UVRA, Metabolic Activation: NONE, Method: STANDARD PLATE
  mutagenic call: inactive; negative
Test System: E. COLI, Strain/Indicator: WP2 UVRA, Metabolic Activation: RAT, LIVER, S-9, AROCLOR 1254, Method: STANDARD PLATE
  mutagenic call: inactive; negative
Test System: E. COLI, Strain/Indicator: WP2 UVRA, Metabolic Activation: RAT, LIVER, S-9, Method: STANDARD PLATE
  mutagenic call: inactive; negative
Test System: E.COLI, Strain/Indicator: WP2UVRA/PKM101, Metabolic Activation: NONE, Method: PREINCUBATION
  mutagenic call: inactive; negative
Test System: E.COLI, Strain/Indicator: WP2UVRA/PKM101, Metabolic Activation: RAT LIVER S-9, PHENOBARBITAL AND BETA-NAPHTHOFLAVONE, Method: PREINCUBATION
  mutagenic call: inactive; negative
Test System: E.COLI, Strain/Indicator: WP2UVRA, Metabolic Activation: NONE, Method: PREINCUBATION
  mutagenic call: inactive; negative
Test System: E.COLI, Strain/Indicator: WP2UVRA, Metabolic Activation: RAT LIVER S-9, PHENOBARBITAL AND BETA-NAPHTHOFLAVONE, Method: PREINCUBATION
  mutagenic call: inactive; negative
Test System: MOUSE LYMPHOMA, Strain/Indicator: L5178Y (TK+/TK-), Metabolic Activation: NONE, Method: SUSPENSION/PLATE
  mutagenic call: active; positive
Test System: Mouse lymphoma, Strain/Indicator: L5178Y (tk+/tk-), Metabolic Activation: None, Method: Suspension/plate
  mutagenic call: inactive; negative
Test System: Mouse lymphoma, Strain/Indicator: L5178Y (tk+/tk-), Metabolic Activation: Rat, Liver, S-9, Aroclor 1254, Method: Suspension/plate
  mutagenic call: inactive; negative
